The test system of one experiment is HepG2. The experiment in a line: Cytotoxicity against human HepG2 cells assessed as reduction in cell viability after 48 hrs by MTT assay. The class given is functional, cell-based. The settings on record: HepG2, 48 h.
For experiment [1], the system named is HeLa. Nature of the experiment: Induction of apoptosis in human HeLa cells assessed as formation of bean shaped nuclei at 2.5 uM after 24 hrs by Hoechst 33342 staining based fluorescence microscopic analysis. The class given is functional, cell-based.
The subject of a further experiment is L02. Nature of the experiment: Cytotoxicity against human LO2 cells assessed as reduction in cell viability after 48 hrs by MTT assay. The class given is cell-based. The settings on record: L02, 48 h. On the technique in general: Tetrazolium assays rely on reduction of a dye to a coloured formazan, in cell work by metabolically active cells.
Experiment [2] relates to HeLa. Nature of the experiment: Induction of apoptosis in human HeLa cells assessed as formation of apoptotic bodies at 2.5 uM after 24 hrs by Hoechst 33342 staining based fluorescence microscopic analysis. The format is functional, cell-based.
Experiment [3] has as its system MCF7. The experiment in a line: Cytotoxicity against human MCF7 cells assessed as reduction in cell viability at 50 uM after 48 hrs by MTT assay relative to control. The format is functional. The settings on record: MCF7, 48 h.
Experiment [4] concerns HeLa. The experiment in a line: Ionophoric activity across human HeLa cells assessed as chloride ion efflux up to 10 uM after 2 hrs by MQAE dye based fluorescence assay. The format is cell-based.
The nature of experiment [5]: Binding affinity to chloride ion at 1.5 x 10^-5M using tetra(n-butyl)ammonium chloride measured after 5 mins by spectrophotometric titration method.
The nature of experiment [6]: Ionophoric activity across pyranine dye encapsulated pH 7 egg yolk L-alpha-phosphatidylcholine-based liposomal membranes assessed as chloride ion transport by measuring initial rate constant for induction of pH discharge at 3.91 x 10^-3 mol% after 20 mins in presence of NaCl loaded external vesicles by fluorescence method (reference value: 5.03 +/- 1.02 10^-3/min).
The nature of experiment [7]: Ionophoric activity across lucigenin probe encapsulated pH 7 egg yolk L-alpha-phosphatidylcholine-based large unilamellar vesicles loaded with Na2SO4 assessed as chloride ion efflux at 7.81 x 10^-3mol% after 20 mins in presence of NaCl/Na2SO4 loaded external vesicles by fluorescence method.
For experiment [8], the system named is MCF7. Nature of the experiment: Ionophoric activity across human MCF7 cells assessed as chloride ion efflux up to 10 uM after 2 hrs by MQAE dye based fluorescence assay. The format is cell-based.
Experiment [9] can be described thus: Binding affinity to chloride ion assessed as 1:1 compound-Cl- complex formation at 4.1 mM using tetra(n-butyl)ammonium chloride by ESI MS spectrometric method.

Active and inactive are the calls of the source. No cut-off for these calls is given here.

As usually defined, the IC50 is the concentration that inhibits the measured activity by half. One may read the inhibition as how much of the control response was suppressed. In the case of `O=[N+]([O-])c1cc(-c2nc3ccc(C(F)(F)F)cc3[nH]2)cc(-c2nc3ccc(C(F)(F)F)cc3[nH]2)c1`, the IC50 was determined as 4.1 µM with HepG2 and 3.7 µM in the experiment on L02. Further, the outcome (in the experiment on HeLa [1]; with HeLa [2]; with HeLa [4]; in the experiment with MCF7 [8]; in experiment [9]) was Active. In addition, the inhibition at 50 µM in the experiment with MCF7 [3] came out at 99.2%. The same molecule yielded a Ka in experiment [5] of 7.53 ×10³ /M. In addition, in experiment [6], the K is 1.33 ×10⁻¹ /min. Besides, the result in experiment [7] was inactive.
